# Measurements reported in PMC10784468 (Nature Communications, 2024).
# Positions of bridges follow the written chain, without caps; N, C: chain ends. No end group written: not given here. FeTCPP = ferriporphyrin at the N-terminus; CAA = cis-aconitic anhydride moiety
# T1: GPX4 (Homo sapiens, UniProt P36969)
# T1 sequence (P36969 1-197): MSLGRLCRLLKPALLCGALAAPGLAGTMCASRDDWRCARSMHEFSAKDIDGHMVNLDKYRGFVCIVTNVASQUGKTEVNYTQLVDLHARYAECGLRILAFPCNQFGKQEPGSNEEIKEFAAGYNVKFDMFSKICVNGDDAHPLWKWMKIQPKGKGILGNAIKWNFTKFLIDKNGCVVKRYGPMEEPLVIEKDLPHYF
# T2: NGi-F-CAA (synthetic construct, cysteine pairing not given here; also: cis-aconitic anhydride on Lys)
# T2 chain: FeTCPP-LKLKLK(CAA)GACLNWPYLPCPV
# T3: Gi-F-CAA (synthetic construct, disulfide 9-17 (inferred))
# T3 chain: FeTCPP-LKLKLK(CAA)GACNWLPLYPCPV
# T4: Gi-F nanoparticle (synthetic construct, disulfide 9-17 (inferred); also: self-assembled nanoparticle)
# T4 chain: FeTCPP-LKLKLKGACNWLPLYPCPV
# B1: GPX4 (protein)
# chain: SLGRLCRLLKPALLCGALAAPGLAGTMCASRDDWRCARSMHEFSAKDIDGHMVNLDKYRGFVCIVTNVASQUGKTEVNYTQLVDLHARYAECGLRILAFPCNQFGKQEPGSNEEIKEFAAGYNVKFDMFSKICVNGDDAHPLWKWMKIQPKGKGILGNAIKWNFTKFLIDKNGCVVKRYGPMEEPLVIEKDLPHYF
# Legend:
# [1] = tested on: MCF-7/MDR xenograft tumors; experiment: In vivo antitumor evaluation in MCF-7/MDR xenografted model; details: for mean tumor volume at 20 days post injection / TGI rate: MCF-7/MDR xenograft, Gi-F-CAA 8 mg/kg, DOX and CPT 3 mg/kg; for mean tumor volume at 20 days post injection: six i.v. injections every 2 days, n = 6; for TGI rate: six i.v. injections, 20 days
# From the text: Female BALB/c nude mice (~8 weeks, 18 g) were subcutaneously inoculated with 5 × 10^6 MCF-7/MDR cells resuspended in Matrigel. […] Individual tumor volume and bodyweight of mouse after different treatment was collected at 2-days intervals for analysis. Mice were killed at 20 days post treatment unless endpoints were exceeded. Moreover, tumors from all groups were harvested under euthanasia and weighed for analysis at the end of treatment.
# 786-O xenograft tumors = experiment: In vivo antitumor evaluation in large tumor model (786-O); set-up: species or system BALB/c nude mice; details: six i.v. injections at 2-days intervals, Gi-F-CAA 8 mg/kg, Bevacizumab 5 mg/kg
# GPX4mu = details: one-to-one binding; ref Biochemical and Biophysical Research Communications. 2017, 482, 195e201; cited from earlier work
# Description: page 12: Figure 9. […] The manuscript was revised accordingly. […] More explanation on this may be helpful. For instance, why small molecule inhibitors of GPX4 were not used? I suppose small molecules may penetrate tumor better since they are smaller. Beside ... || page 14: calculation of apparent Kd was added in the method section. Specifically, nanoparticles provide large surface area with exposed GPX4 target to achieve multivalent binding, which could remarkably enhance the binding affinity. This concept has been proven by several papers (Adv. Mater. 2023,35, 2211332; Adv Mater, 2023, doi: 10.1002/adma.202303831). […] Biophys. Res.
# GPX4 [2] = details: ref Biochemical and Biophysical Research Communications. 2017, 482, 195e201, cited from earlier work; for GPX4 inhibitory effect at 100 μM: even at 100 μM
# From the text: page 12: Figure 9. […] The manuscript was revised accordingly. […] More explanation on this may be helpful. For instance, why small molecule inhibitors of GPX4 were not used? I suppose small molecules may penetrate tumor better since they are smaller. Beside ...
# EJ cells [3] = experiment: Cytotoxicity assay (CCK-8) on EJ cells
# Description: Initially, EJ cells were seeded into 96 well plates at a density of 5 × 10^3 per well and incubated in a CO2 incubator overnight at 37 °C. Subsequently, Gi-F (pH = 7.4), Gi-F-SA (pH = 7.4), NGi-F-CAA (pH = 7.4), NGi-F-CAA (pH = 6.5), Gi-F-CAA (pH = 7.4) and Gi-F-CAA (pH = 6.5) at different concentrations (1, 2, 4, 8, 16, 32, 64, 128 and 256 μM) was added to the cells and further incubated for 48 h. Finally, the cell viability rate was calculated by (Sample wells-Blank wells)/(Control wells-Blank wells) × 100%.
# EJ cells [4] = experiment: Intracellular LPO content (MDA kit); assay type: cell-based
# Description: (§1) Initially, EJ cells (5 × 10^5) were cultured in 6-well plate with a CO2 incubator overnight at 37 °C. […] Next, EJ cells were collected and washed with PBS for 3 times. Afterwards, the cell lysates were collected by centrifugation at 8000 g for 10 min at 4 °C after lysed by freeze-thaw treatment. Finally, the LPO contents were measured by thiobarbituric acid (TBA) reaction with a Malondialdehyde (MDA) Assay Kit based on the manufacturer’s instructions.
# GPX4 [5] = target: T1, GPX4; experiment: Intracellular GPX4 activity detection; assay type: cell-based; set-up: endogenous in cells; host or cells: EJ bladder cancer cells
# Description: Initially, EJ cells (5 × 10^5) were cultured in 6-well plate with a CO2 incubator overnight at 37 °C. […] Next, EJ cells were collected and washed with PBS for 3 times. Afterwards, the cell lysates were collected by centrifugation at 5000 rpm for 10 min at 4 °C after ultrasonic lysis in an ice bath. Finally, the GPX4 activity were measured with a GPX Assay Kit based on the manufacturer’s instructions.
# ζ-potential in PBS = assay type: physicochemical; details: 40 μM in PBS, pH 7.4; mean of n = 3
# Description: Supplementary Fig. 12. ζ-potential change of Gi-F-CAA (40 μM) in PBS (0.01 M, pH 7.4 or 6.5) (n=3
# experimental repeats). Experiment was independently repeated three times with similar results. Values are
# (1 picture or pasted object on this page, not shown here)
# Supplementary Fig. 13. ζ-potential of NGi-F-CAA, Gi-F and Gi-F-SA (pH 7.4) (40 μM) in PBS (n=3
# EJ cells [6] = experiment: Intracellular GSH content detection; assay type: cell-based
# Description: as §1, with “GSH” for “LPO”, “measured” for “measured by thiobarbituric acid (TBA) reaction”, “GSH” for “Malondialdehyde (MDA)”
# EJ cells [7] = experiment: Intracellular Fe2+ ions detection; assay type: cell-based
# Description: Initially, EJ cells (5 × 10^5) were cultured in confocal dish with a CO2 incubator overnight at 37 °C. […] Afterwards, EJ cells were washed with PBS for 3 times and replaced with culture mediums.
# NGi-F-CAA = target: T2, NGi-F-CAA; experiment: MST
# Gi-F-CAA = target: T3, Gi-F-CAA; experiment: MST
# Gi-F nanoparticle = target: T4, Gi-F nanoparticle; experiment: MST
molecule,measurement,setting,value
CC[C@@]1(O)C(=O)OCc2c1cc1n(c2=O)Cc2cc3ccccc3nc2-1 [CPT],mean tumor volume at 20 days post injection,[1],1095 mm^3
same,TGI rate,[1],39%
same,Tumor weight,[1]; mice 1,0.95 g
same,Tumor weight,[1]; mice 2,0.87 g
same,Tumor weight,[1]; mice 3,1 g
same,Tumor weight,[1]; mice 4,0.65 g
same,Tumor weight,[1]; mice 5,0.9 g
same,Tumor weight,[1]; mice 6,0.74 g
COc1cccc2c1C(=O)c1c(O)c3c(c(O)c1C2=O)C[C@@](O)(C(=O)CO)C[C@@H]3O[C@H]1C[C@H](N)[C@H](O)[C@H](C)O1 [DOX],mean tumor volume at 20 days post injection,[1],1082 mm^3
same,TGI rate,[1],32%
same,Tumor weight,[1]; mice 1,0.73 g
same,Tumor weight,[1]; mice 2,1.18 g
same,Tumor weight,[1]; mice 4,0.93 g
same,Tumor weight,[1]; mice 6,0.69 g
Bevacizumab: clinical antitumor drug Avastin (Bevacizumab) [reference compound],tumor volume course in large tumors (~500 mm^3),786-O xenograft tumors,temporary retarded growth and got out of control thereafter
CRAWYQNYCALRR [GXpep-2],Kd,GPX4mu,0.61 µM
same,GPX4 inhibitory effect at 100 μM,GPX4 [2],did not have an inhibitory effect
CRVDLQGWRRCRR [GXpep-1],Kd,GPX4mu,1.8 µM
same,GPX4 inhibitory effect at 100 μM,GPX4 [2],did not have an inhibitory effect
FeTCPP-LKLKLK(CAA)GACLNWPYLPCPV (disulfide) [NGi-F-CAA],IC50,EJ cells [3]; pH 6.5,111 µM
same,IC50,EJ cells [3]; pH 7.4,155 µM
same,Relative MDA levels,"EJ cells [4]; pH=7.4, replicate #1",0.76
same,Relative MDA levels,"EJ cells [4]; pH=7.4, replicate #2",1.04
same,Relative MDA levels,"EJ cells [4]; pH=7.4, replicate #3",1.44
same,Relative activity of GPX4,"GPX4 [5]; EJ cells, 8 h, pH 7.4, PBS group normalized as 1, #1",0.95
same,Relative activity of GPX4,"GPX4 [5]; EJ cells, 8 h, pH 7.4, PBS group normalized as 1, #2",0.9
same,Relative activity of GPX4,"GPX4 [5]; EJ cells, 8 h, pH 7.4, PBS group normalized as 1, #3",1.02
same,Relative activity of GPX4,"GPX4 [5]; pH=7.4, replicate #1",0.94
same,Relative activity of GPX4,"GPX4 [5]; pH=7.4, replicate #2",0.94
same,Relative activity of GPX4,"GPX4 [5]; pH=7.4, replicate #3",1
same,Zeta potential (mV),ζ-potential in PBS,-26.8 mV
same,Relative GSH levels,"EJ cells [6]; pH=7.4, replicate #1",0.912
same,Relative GSH levels,"EJ cells [6]; pH=7.4, replicate #2",0.883
same,Relative GSH levels,"EJ cells [6]; pH=7.4, replicate #3",1.029
same,"intracellular Fe^2+ (FerroOrange fluorescence), pH 7.4","EJ cells [7]; EJ cells, pH 7.4, 8 h",no remarkable fluorescence
same,Concentrations of Fe2+ ions,"EJ cells [7]; pH=7.4, replicate #1",17.875 ng/104cells
same,Concentrations of Fe2+ ions,"EJ cells [7]; pH=7.4, replicate #2",15.309 ng/104cells
same,Concentrations of Fe2+ ions,"EJ cells [7]; pH=7.4, replicate #3",13.004 ng/104cells
GACNWLPLYPCPV (disulfide 3-11 (inferred)) [GXpep-3],Kd,GPX4mu,8.2 µM
same,IC50,"GPX4 [2]; read-out: IC50, GPX4 inhibitory activity",10 µM
B1,Kd,NGi-F-CAA,~17.6 µM
same,Kd,Gi-F-CAA,~1.68 µM
same,Kd,Gi-F nanoparticle,~0.0303 µM
